pEC50: −log10 of the molar value.
Experiments:
TNKS1 = TNKS1 (Homo sapiens (Human), UniProt O95271); experiment: biochemical; format: biochemical; conditions: GST-tagged Tnks-1 (1023-1327 aa); read-out: IC50 [M] TNKS1 ELISA
TNKS2 = TNKS2 (Homo sapiens (Human), UniProt Q9H2K2); experiment: biochemical; format: biochemical; conditions: GST-tagged Tnks-2 (873-1166 aa); read-out: IC50 [M] TNKS2 ELISA
PARP-1 = PARP-1 (Homo sapiens (Human), UniProt P09874); experiment: Biochemical activity testing of PARP-1: autoparsylation assay (HTRF); conditions: His-tagged Parp-1, autoparsylation HTRF
Chain of PARP-1 (P09874 whole entry): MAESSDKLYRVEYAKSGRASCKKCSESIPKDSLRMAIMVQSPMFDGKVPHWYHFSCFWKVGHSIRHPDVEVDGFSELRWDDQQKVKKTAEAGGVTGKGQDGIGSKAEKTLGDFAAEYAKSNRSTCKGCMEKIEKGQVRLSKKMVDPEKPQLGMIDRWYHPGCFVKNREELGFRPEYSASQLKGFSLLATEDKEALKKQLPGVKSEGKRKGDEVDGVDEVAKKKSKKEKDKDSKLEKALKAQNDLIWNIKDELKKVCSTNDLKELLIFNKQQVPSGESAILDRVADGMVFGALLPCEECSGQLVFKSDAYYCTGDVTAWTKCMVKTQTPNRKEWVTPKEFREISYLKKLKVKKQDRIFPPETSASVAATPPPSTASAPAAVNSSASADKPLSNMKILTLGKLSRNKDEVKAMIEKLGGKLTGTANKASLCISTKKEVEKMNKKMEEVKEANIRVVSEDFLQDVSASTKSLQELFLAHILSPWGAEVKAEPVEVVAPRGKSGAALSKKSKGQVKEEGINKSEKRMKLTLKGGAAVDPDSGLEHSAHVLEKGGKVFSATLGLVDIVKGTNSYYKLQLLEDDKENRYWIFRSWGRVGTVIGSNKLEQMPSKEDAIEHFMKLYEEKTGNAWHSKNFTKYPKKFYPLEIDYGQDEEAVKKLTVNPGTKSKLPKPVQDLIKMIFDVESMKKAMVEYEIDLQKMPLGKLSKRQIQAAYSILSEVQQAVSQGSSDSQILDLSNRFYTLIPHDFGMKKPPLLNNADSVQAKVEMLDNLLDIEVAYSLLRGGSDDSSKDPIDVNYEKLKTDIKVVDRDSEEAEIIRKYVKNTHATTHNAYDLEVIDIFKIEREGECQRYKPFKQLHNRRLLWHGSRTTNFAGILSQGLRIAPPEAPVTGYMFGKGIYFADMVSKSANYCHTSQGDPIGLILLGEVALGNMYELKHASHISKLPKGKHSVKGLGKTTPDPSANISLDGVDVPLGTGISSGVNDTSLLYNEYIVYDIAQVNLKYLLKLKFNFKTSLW

Tankyrases = experiment: Measurement of cellular inhibition of Tankyrase (Axin2 level, Luminex based assay, DLD1 cells); format: cell-based; conditions: increase of Axin2 level, 24 hours, read-out: EC50 [M] TNKS cellular assay
DLD-1-cancer cells = conditions: Huang et al., 2009; cited from earlier work
Tankyrase = conditions: prior art value; read-out: cellular assay: EC50; cited from earlier work

| SMILES | IC50 (TNKS1) [M] | IC50 (TNKS2) [M] | IC50 (PARP-1) [nM] | EC50 (Tankyrases) [M] | growth of DLD-1-cancer cells (DLD-1-cancer cells) | pEC50 (Tankyrase) |
| --- | --- | --- | --- | --- | --- | --- |
| Cn1cc(C(=O)C2CCN(C(=O)CC(C)(C)Cc3nc4c(cnn4C)c(=O)[nH]3)CC2)cn1 [Compound C20, 6-{2,2-Dimethyl-4-[4-(1-methyl-1H-pyrazole-4-carbonyl)-piperidin-1-yl]-4-oxo-butyl}-1-methyl-1,5-dihydro-pyrazolo[3,4-d]pyrimidin-4-one] | 9.2e-10 | 7.3e-10 | > 30000 | 1.9e-08 |  |  |
| COc1ccc(C(=O)C2CCN(C(=O)CC(C)(C)Cc3nc4c(cnn4C)c(=O)[nH]3)CC2)cn1 [Compound C21, 6-{4-[4-(6-Methoxy-pyridine-3-carbonyl)-piperidin-1-yl]-2,2-dimethyl-4-oxo-butyl}-1-methyl-1,5-dihydro-pyrazolo[3,4-d]pyrimidin-4-one] | 3.6e-09 | 2.1e-09 | > 30000 | 1.6e-08 |  |  |
| COc1ncc(C(=O)C2CCN(C(=O)CC(C)(C)Cc3nc4c(cnn4C)c(=O)[nH]3)CC2)cc1C [Compound C22, 6-{4-[4-(6-Methoxy-5-methyl-pyridine-3-carbonyl)-piperidin-1-yl]-2,2-dimethyl-4-oxo-butyl}-1-methyl-1,5-dihydro-pyrazolo[3,4-d]pyrimidin-4-one] | 2.2e-09 | 1.8e-09 | > 30000 | 7.9e-09 |  |  |
| Oc1nc(-c2ccc(C(F)(F)F)cc2)nc2c1CSCC2 [XAV939] |  |  |  |  | inhibits growth |  |
| COc1ccc(C(=O)C2CCN(CC(=O)N(Cc3nc4c(c(=O)[nH]3)COCC4)CC3CC3)CC2)cc1 [benzoylpiperidine derivative] |  |  |  |  |  | 7.46 |

Reference: US10570116B2, “1,4-dicarbonyl-piperidyl derivatives” (Merck Patent GmbH, priority 2015, dated 2020)
